Experiments:
Format in all cases: in vivo, human
test subjects [1] = assay: cream temperature sense and usability/skin feel with scented cotton versus no aroma; parameters: key to Absorption into skin / Youthfulness of skin / Stickiness of skin: five-point scale, 5 = I agree to 1 = I disagree; settings: for Skin tightness / Absorption into skin / Cream spreading (heavy) / Cream spreading (light) / Firmness of skin / Non-stickiness of skin / Plumpness of skin / Skin freshness / Skin moistness / Skin smoothness / Skin suppleness / Stickiness of skin / Thickness of cream / Youthfulness of skin / Cream temp. sense (warm) / Cream temp. sense (cold): average; for Skin tightness: five-point scale 5 (I agree) to 1 (I disagree); for Absorption into skin / Cream spreading (heavy) / Cream spreading (light) / Firmness of skin / Non-stickiness of skin / Plumpness of skin / Skin freshness / Skin moistness / Skin smoothness / Skin suppleness / Stickiness of skin / Thickness of cream / Youthfulness of skin: five-point scale 5 to 1; for Cream temp. sense (warm): five-point scale 5 warm to 1 cold; for Cream temp. sense (cold): five-point scale, unscented cream, aroma smelled from cotton; for effect on temperature sense (raising or lowering) / perceived usability/skin feel, heavy-spreading or light-spreading / perceived usability/skin feel, moist or fresh: result in words
Method: Just as with the survey conducted for temperature sense above, 17 or 18 women 20 to 24 years of age were selected for this test, cotton to which no perfume had been applied was affixed to one arm, and cotton to which perfume had been applied was affixed to the other arm, the arms were each coated with an unscented cream while the subjected smelled the aroma of the cotton, and the subjectively sensed temperature of the cream was assessed on a five-point scale in which 5 was warm, 4 was somewhat warm, 3 was “can't say,” 2 was somewhat cold, and 1 was cold.
Next, the correlation of aroma-induced cosmetic temperature sense, usability, and how the cosmetic actually felt on the skin, and the correlation with the image of the aroma were tested for the above-mentioned 24 different raw material perfumes. […] The aroma image was assessed on a seven-point scale from 0 to 6, while the usability/skin feel was assessed on a five-point scale from 5 (“I agree”) to 1 (“I disagree”). In addition to assessing usability, the impression of the aroma of the perfume was also assessed at the same time. To prevent the perfume from modifying the cream, a method was employed in which the perfume component was not directly added to the cream, but was instead applied to the cotton and smelled.
The following wording was selected for usability/skin feel. • How well a cream spreads: light to heavy • Absorption into the skin: fast to slow • Makes the skin look youthful?: yes to no • Makes the skin feel sticky?: yes to no • Makes the skin feel fresh?: yes to no • Makes the skin feel moist?: yes to no • Makes the skin feel non-sticky?: yes to no • Makes the skin feel smooth?: yes to no • Makes the skin feel supple?: yes to no • Makes the skin feel tight?: yes to no • Each of these was assessed on a five-point-scale. • For impressions of aroma, words that readily express the characteristics of an aroma, and four different words (natural, rich, tender, and sharp) were selected as generic terms from among sensory adjectives and emotional adjectives used to express the five senses. Each generic term encompasses specific aroma impression words. For example, “natural” encompasses impression expressions such as transparent, bright, natural, [3] pure, etc.; “rich” encompasses thick, sultry, mature, glossy, sexy, etc.; “tender” encompasses mild, sweet, gentle, graceful, etc; and “sharp” encompasses bracing, sharp, cool, etc. […] However, the words used to express usability/skin feel and the words used to express impressions of aroma are nothing more than examples, and [the present invention] is not limited to or by these words.

test subjects [2] = assay: subjectively sensed temperature of constant-temperature water on the hands while smelling an aroma; settings: 28° C. water, seven-point scale 7 hot to 1 extremely cold, 12 test subjects
Method: As a result of various research, the inventors discovered that the aroma given off by a specific perfume component can change the temperature subjectively sensed by a person (temperature sense). 12 test subjects put there hands into water held at a constant temperature, and the subjectively sensed temperature of the water was assessed on a seven-point scale in which 7 was hot, 6 was warm, 5 was somewhat warm, 4 was “can't say,” 3 was somewhat cold, 2 was cold, and 1 was extremely cold. The same 12 test subjects were asked to smell a peppermint aroma while once again putting their hands into water held at a constant temperature, and the subjectively sensed temperature of the water was assessed on a seven-point scale. The same experiment was repeated by raising the water temperature one degree at a time, and the testers looked for the temperature at which the assessment given under conditions of smelling the peppermint aroma was the same as the assessment given under conditions of no aroma at 28° C. […]
Also, to examine the change in temperature sense with and without aroma, the 12 test subjects put their hands in water with a temperature of 28° C., and the subjectively sensed temperature was assessed on a seven-point scale in the same manner as above. […]

test subjects [3] = assay: sebum content of the cheeks (sebumeter) with scented cotton under nostrils; settings: room temperature 23 degrees, humidity 46%
Method: (§1) 12 female test subjects 20 to 24 years of age were asked to wash their face and attach a piece of scented cotton under their nostrils, which was left alone for a few minutes at a room temperature of 23 degrees and a humidity of 46%, after which the moisture content (corneometer) and sebum content (sebumeter) of the cheeks were measured.

test subjects [4] = assay: moisture content of the cheeks (corneometer) with scented cotton under nostrils; settings: room temperature 23 degrees, humidity 46%
Method: as §1

test subjects [5] = assay: temperature sense of a space (clear boxes with and without aroma); settings: face put into box with aroma versus box without; FIG. 7; result in words
Source text: Also, it is possible to change the temperature sense of a person located in a specific space by dispersing in that space, by volatilization or another such means, a perfume composition containing the above-mentioned perfume component capable of changing a person's temperature sense, and having the person smell the aroma. To test this, a clear box containing scented paper and another clear box containing unscented paper were readied, and an experiment was conducting by having a test subject put his or her face into each of the boxes and compare the temperature sense of the space. […] FIG. 5 is a graph of the assessment results, and it can be seen that the temperature sense of a person located in a space can be changed by aroma. When the perfume composition is dispersed in the space so that the person will smell it, the concentration of the aroma is preferably about 0.01 to 10 ppm. With peppermint oil, for instance, about 0.4 ppm is favorable. […] The test subject put his or her face into first one box and then the other and compared the temperature sense of the space. This experiment was conducted for three different aromas, namely, peppermint, bergamot, and vanillin. A lid 6 that could be opened and closed was provided to the top of each of the boxes 1 and 2. The test subjects and experiment conditions were the same as discussed above. […]

With CC(C=O)Cc1ccc(C(C)(C)C)cc1 (stereo not drawn) [B, 4-tert-butyl-α-methylhydroxycinnamic aldehyde] the Skin tightness (test subjects [1]) was 3.3, the Absorption into skin (test subjects [1]) was 3.5 and the “Cream spreading (heavy)” value (test subjects [1]) was 2.2. The “Cream spreading (light)” value (test subjects [1]) was 3.8, the Firmness of skin (test subjects [1]) was 2.9 and the Non-stickiness of skin (test subjects [1]) was 2.5. It also gave a Plumpness of skin (test subjects [1]) of 2.2, a Skin freshness (test subjects [1]) of 3.2 and a Skin moistness (test subjects [1]) of 3.9. For the same compound, the Skin smoothness (test subjects [1]) was 3.8, the Skin suppleness (test subjects [1]) was 3.4 and the Stickiness of skin (test subjects [1]) was 3.1. The Thickness of cream (test subjects [1]) was 2.5, the Youthfulness of skin (test subjects [1]) was 3.8 and the “Cream temp. sense (warm)” value (test subjects [1]) was 3.4. The “Cream temp. sense (cold)” value (test subjects [1]) was 2.6, the “effect on temperature sense (raising or lowering)” value (from here on “effect … (raising or lowering)”) (test subjects [1]) was “capable of raising temperature sense” and the “perceived usability/skin feel, heavy-spreading or light-spreading” value (test subjects [1]) was “light-spreading usability/skin feel”. The “perceived usability/skin feel, moist or fresh” value (test subjects [1]) was “moist usability/skin feel”.

CC1COCc2cc3c(cc21)C(C)(C)C(C)C3(C)C (centres unmarked) [4,6,6,7,8,8-hexamethyl-1,3,4,6,7,8-hexahydrocyclopentabenzopyran] was tested, and the “effect … (raising or lowering)” value (test subjects [1]) was “capable of raising temperature sense”, the “perceived usability/skin feel, heavy-spreading or light-spreading” value (test subjects [1]) was “light-spreading usability/skin feel” and the “perceived usability/skin feel, moist or fresh” value (test subjects [1]) was “moist usability/skin feel”.

With Cc1occc(=O)c1O [maltol] the “effect … (raising or lowering)” value (test subjects [1]) was “capable of raising temperature sense”.

For CC(=O)/C=C/C1=C(C)CCCC1(C)C [β-ionone], the “effect … (raising or lowering)” value (test subjects [1]) was “capable of raising temperature sense”, the “perceived usability/skin feel, heavy-spreading or light-spreading” value (test subjects [1]) was “light-spreading usability/skin feel” and the “perceived usability/skin feel, moist or fresh” value (test subjects [1]) was “moist usability/skin feel”.

With CC1(C)CCCC2(C)C1CCC1(C)OCCC12 (stereo not drawn) [3α,6,6,9α-tetramethyldodecahydronaphtho[2,1-b]furan] the “effect … (raising or lowering)” value (test subjects [1]) was “capable of raising temperature sense”, the “perceived usability/skin feel, heavy-spreading or light-spreading” value (test subjects [1]) was “light-spreading usability/skin feel” and the “perceived usability/skin feel, moist or fresh” value (test subjects [1]) was “moist usability/skin feel”.

With CC(C)[C@@H]1CC[C@@H](C)C[C@H]1O [L-menthol] the “subjectively sensed temperature of the water, average assessment” value (test subjects [2]) was 4.125.

O=Cc1ccc2c(c1)OCO2 [heliotropine] was tested, and the “effect … (raising or lowering)” value (test subjects [1]) was “capable of raising temperature sense”, the “perceived usability/skin feel, heavy-spreading or light-spreading” value (test subjects [1]) was “light-spreading usability/skin feel” and the “perceived usability/skin feel, moist or fresh” value (test subjects [1]) was “moist usability/skin feel”.

For L-carvone, the “subjectively sensed temperature of the water, average assessment” value (test subjects [2]) was 4.

In the case of COc1cc(C=O)ccc1O [C, vanillin], the Sebum content (test subjects [3]) is reported as “no difference attributable to aroma”, the Moisture content (test subjects [4]) is reported as 69.3 (increase) and the “sense of warmth or cold inside the box” value (test subjects [5]) is reported as “gave a warm sensation”. For the same compound, the “Cream spreading (heavy)” value (test subjects [1]) was 3.1, the “Cream spreading (light)” value (test subjects [1]) was 2.9 and the Thickness of cream (test subjects [1]) was 2.8. For the same compound, the “Cream temp. sense (warm)” value (test subjects [1]) was 4.1, the “Cream temp. sense (cold)” value (test subjects [1]) was 1.9 and the “effect … (raising or lowering)” value (test subjects [1]) was “capable of raising temperature sense”.

In the case of CCCCCCCC1CCC(=O)O1 (centres unmarked) [G, γ-undecalactone], the “Cream spreading (heavy)” value (test subjects [1]) is reported as 2.2, the “Cream spreading (light)” value (test subjects [1]) is reported as 3.8 and the Thickness of cream (test subjects [1]) is reported as 2.1. The “Cream temp. sense (warm)” value (test subjects [1]) was 3.2, the “Cream temp. sense (cold)” value (test subjects [1]) was 2.8 and the “effect … (raising or lowering)” value (test subjects [1]) was “capable of raising temperature sense”.

With Cc1ccc2c(c1)OCC(=O)CO2 [7-methyl-3,4-dihydro-(2H)-1,5-benzodioxepin-3-one] the “effect … (raising or lowering)” value (test subjects [1]) was “capable of lowering temperature sense”, the “perceived usability/skin feel, heavy-spreading or light-spreading” value (test subjects [1]) was “light-spreading usability/skin feel” and the “perceived usability/skin feel, moist or fresh” value (test subjects [1]) was “fresh usability/skin feel”.

In the case of COC(=O)c1ccccc1N=CCC(C)CCCC(C)(C)O (centres unmarked) [methyl-N-3,7-dimethyl-7-hydroxyoctylidene-anthranilate], the “effect … (raising or lowering)” value (test subjects [1]) is reported as “capable of lowering temperature sense”, the “perceived usability/skin feel, heavy-spreading or light-spreading” value (test subjects [1]) is reported as “heavy-spreading usability/skin feel” and the “perceived usability/skin feel, moist or fresh” value (test subjects [1]) is reported as “fresh usability/skin feel”.

With CC1=CC(C)C(C=O)CC1 (centres unmarked) [E, 2,4-dimethyl-3-cyclohexenyl carboxyaldehyde] the Skin tightness (test subjects [1]) was 2.4, the Absorption into skin (test subjects [1]) was 2.9 and the “Cream spreading (heavy)” value (test subjects [1]) was 2.7. The “Cream spreading (light)” value (test subjects [1]) was 3.3, the Firmness of skin (test subjects [1]) was 2.8 and the Non-stickiness of skin (test subjects [1]) was 2.6. It also gave a Plumpness of skin (test subjects [1]) of 2.3, a Skin freshness (test subjects [1]) of 3.1 and a Skin moistness (test subjects [1]) of 3.3. For the same compound, the Skin smoothness (test subjects [1]) was 3.8, the Skin suppleness (test subjects [1]) was 3.4 and the Stickiness of skin (test subjects [1]) was 3.2. The Thickness of cream (test subjects [1]) was 3.1, the Youthfulness of skin (test subjects [1]) was 3.7 and the “Cream temp. sense (warm)” value (test subjects [1]) was 2.5. For the same compound, the “Cream temp. sense (cold)” value (test subjects [1]) was 3.5, the “effect … (raising or lowering)” value (test subjects [1]) was “capable of lowering temperature sense” and the “perceived usability/skin feel, heavy-spreading or light-spreading” value (test subjects [1]) was “light-spreading usability/skin feel”. For the same compound, the “perceived usability/skin feel, moist or fresh” value (test subjects [1]) was “fresh usability/skin feel”.
